Data reported in patent publication US20080009418A1, “Selective Inhibitors” (Alchemia LTD., priority 2004, published 2008).

Key:
Human neurokinin (NK1) = molecular target: T1, Human neurokinin (NK1) (Homo sapiens, UniProt P25103); assay: Radioligand binding, human neurokinin NK1 membranes, filtration, [125I]-Substance P; details: compound at 10 μM, [125I]-Substance P
T1 construct: purchased Perkin Elmer Biosignal
In short: (§1)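 Filtration binding on cloned human receptor membranes (1 Unit/well), [125I]-Substance P for NK1 and [3H]-Diprenorphine for KOP, 1 h at room temperature. Filters PEI-presoaked, washed with cold 50 mM Tris-HCl pH 7.4, counted by scintillation; percent inhibition calculated, reference ligand defining non-specific binding.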

Human opioid (ORL1) = molecular target: T2, Human opioid (ORL1) (Homo sapiens, UniProt P41146); assay: Radioligand binding, human opioid ORL1 membranes, FlashPlate, [125I]-Nociceptin; details: compound at 10 μM, [125I]-Nociceptin
T2 construct: purchased Perkin Elmer Biosignal
In short: (§2)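 Cloned human receptor membranes were coated onto FlashPlate wells and incubated with radioligand and compound (added from a 0.5 mM DMSO daughter plate) for 1 hour at room temperature in the dark. Scintillation counting gave percent inhibition, with DMSO defining total and reference ligand defining non-specific binding.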

Human Melanocortin (MC3) = molecular target: T3, Human Melanocortin (MC3) (Homo sapiens, UniProt P41968); assay: Radioligand binding, human melanocortin MC3 membranes, FlashPlate, [125I]-NDP-αMSH; details: compound at 10 μM, [125I]-NDP-αMSH
T3 construct: purchased Perkin Elmer Biosignal
In short: as §2

[1] = molecular target: T4, Human melanin-concentrating hormone (MCH1) (Homo sapiens, UniProt Q99705); assay: Radioligand binding, human melanin-concentrating hormone MCH1 membranes, FlashPlate, [125I]-S36057; details: compound at 10 μM
T4 construct: purchased Perkin Elmer Biosignal
In short: as §2

Human κ-Opioid (KOP) = molecular target: T5, Human κ-Opioid (KOP) (Homo sapiens, UniProt P41145); assay: Radioligand binding, human κ-opioid (KOP) membranes, filtration, [3H]-Diprenorphine; details: compound at 10 μM, [3H]-Diprenorphine
T5 construct: purchased Perkin Elmer Biosignal
In short: as §1

Human melanocortin (MC5) = molecular target: T6, Human melanocortin (MC5) (Homo sapiens, UniProt P33032); assay: Radioligand binding, human melanocortin MC5 membranes, FlashPlate, [125I]-NDP-αMSH; details: compound at 10 μM, [125I]-NDP-αMSH
T6 construct: purchased Perkin Elmer Biosignal
In short: as §2

[2] = molecular target: T7, Human neuropeptide Y (NPY-Y1) (Homo sapiens, UniProt P25929); assay: Radioligand binding, human neuropeptide Y NPY-Y1 membranes, FlashPlate, [125I]-PYY; details: compound at 10 μM, [125I]-PYY
T7 construct: purchased Perkin Elmer Biosignal
T7 sequence (P25929 1-384): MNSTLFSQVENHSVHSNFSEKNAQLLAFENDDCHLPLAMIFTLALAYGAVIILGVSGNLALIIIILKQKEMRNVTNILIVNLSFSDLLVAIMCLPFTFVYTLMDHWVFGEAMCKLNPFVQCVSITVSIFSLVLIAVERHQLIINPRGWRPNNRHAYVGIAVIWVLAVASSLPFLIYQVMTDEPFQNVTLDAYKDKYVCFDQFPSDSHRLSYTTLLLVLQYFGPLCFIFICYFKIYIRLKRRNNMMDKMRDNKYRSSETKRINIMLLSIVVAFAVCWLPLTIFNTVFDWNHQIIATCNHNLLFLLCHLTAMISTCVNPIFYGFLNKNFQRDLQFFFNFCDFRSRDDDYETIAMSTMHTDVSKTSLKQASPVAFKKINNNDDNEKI
In short: as §2

Mouse urotensin (mUR2) = molecular target: T8, Mouse urotensin (mUR2) (Mus musculus, UniProt Q8VIH9); assay: Radioligand binding, mouse urotensin mUR2 membranes, FlashPlate, [125I]-Urotensin II; details: compound at 10 μM, [125I]-Urotensin II
T8 construct: purchased Perkin Elmer Biosignal
T8 sequence (Q8VIH9 1-385): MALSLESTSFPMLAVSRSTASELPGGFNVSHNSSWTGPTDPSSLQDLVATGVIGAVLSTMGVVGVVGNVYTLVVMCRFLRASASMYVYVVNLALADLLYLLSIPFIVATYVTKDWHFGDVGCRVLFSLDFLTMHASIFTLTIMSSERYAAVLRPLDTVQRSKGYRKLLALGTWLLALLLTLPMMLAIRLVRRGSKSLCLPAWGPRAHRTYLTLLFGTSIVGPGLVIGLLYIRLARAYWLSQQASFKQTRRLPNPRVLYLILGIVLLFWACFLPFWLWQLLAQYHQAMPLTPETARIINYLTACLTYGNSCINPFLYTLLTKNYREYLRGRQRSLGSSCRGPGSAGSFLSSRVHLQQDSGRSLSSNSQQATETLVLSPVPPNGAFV
In short: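 Cloned mouse urotensin (mUR2) receptor membranes from Perkin Elmer Biosignal were immobilized in FlashPlate microplates using a proprietary coating. Each well got 19.5 μl buffer, then 0.5 μl of DMSO, reference ligand, or compound. Adding 5 μl of [125I]-Urotensin II, diluted to 5× final concentration in binding buffer, started binding. Plates were sealed with TopSeal-A and incubated 1 hour at room temperature in the dark. Wells were counted for 30 seconds each on a TopCount after a 60-second delay, and percentage inhibition was calculated.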

Human μ-opioid (MOP) = molecular target: T9, Human μ-opioid (MOP) (Homo sapiens, UniProt P35372); assay: Radioligand binding, human μ-opioid (MOP) membranes, FlashPlate, [3H]-Naloxone; details: compound at 10 μM, [3H]-Naloxone
T9 construct: purchased Perkin Elmer Biosignal
In short: as §2

Human Melanocortin (MC4) = molecular target: T10, Human Melanocortin (MC4) (Homo sapiens, UniProt P32245); assay: Radioligand binding, human melanocortin MC4 membranes, FlashPlate, [125I]-NDP-αMSH; details: compound at 10 μM, [125I]-NDP-αMSH
T10 construct: purchased Perkin Elmer Biosignal
In short: as §2

Human δ-opioid (DOP) = molecular target: T11, Human δ-opioid (DOP) (Homo sapiens, UniProt P41143); assay: Radioligand binding, human δ-opioid (DOP) membranes, FlashPlate, [3H]-Bremazocine; details: compound at 10 μM, [3H]-Bremazocine
T11 construct: purchased Perkin Elmer Biosignal
In short: as §2

[3] = [125I]-S36057, human MCH1 membranes

T10 sequence (P32245 whole entry): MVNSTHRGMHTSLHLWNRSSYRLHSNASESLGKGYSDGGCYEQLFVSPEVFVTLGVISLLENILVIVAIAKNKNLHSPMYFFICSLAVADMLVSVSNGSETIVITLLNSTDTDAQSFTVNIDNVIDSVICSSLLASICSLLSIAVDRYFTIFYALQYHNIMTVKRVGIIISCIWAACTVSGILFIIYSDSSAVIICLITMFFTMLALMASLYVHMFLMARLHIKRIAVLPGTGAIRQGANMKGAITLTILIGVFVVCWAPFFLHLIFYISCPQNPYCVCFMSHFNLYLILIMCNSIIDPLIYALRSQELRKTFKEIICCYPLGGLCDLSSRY
T2 sequence (P41146 whole entry): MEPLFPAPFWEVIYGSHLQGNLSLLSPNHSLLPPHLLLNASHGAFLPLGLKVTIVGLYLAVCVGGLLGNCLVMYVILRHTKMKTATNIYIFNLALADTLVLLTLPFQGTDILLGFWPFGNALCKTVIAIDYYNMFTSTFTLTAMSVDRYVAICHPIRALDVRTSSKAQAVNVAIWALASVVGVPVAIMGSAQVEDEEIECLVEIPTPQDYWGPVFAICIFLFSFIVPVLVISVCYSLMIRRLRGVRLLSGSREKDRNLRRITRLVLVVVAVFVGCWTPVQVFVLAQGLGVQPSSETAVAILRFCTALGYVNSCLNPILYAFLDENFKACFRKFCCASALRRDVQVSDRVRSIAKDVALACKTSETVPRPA
T1 sequence (P25103 whole entry): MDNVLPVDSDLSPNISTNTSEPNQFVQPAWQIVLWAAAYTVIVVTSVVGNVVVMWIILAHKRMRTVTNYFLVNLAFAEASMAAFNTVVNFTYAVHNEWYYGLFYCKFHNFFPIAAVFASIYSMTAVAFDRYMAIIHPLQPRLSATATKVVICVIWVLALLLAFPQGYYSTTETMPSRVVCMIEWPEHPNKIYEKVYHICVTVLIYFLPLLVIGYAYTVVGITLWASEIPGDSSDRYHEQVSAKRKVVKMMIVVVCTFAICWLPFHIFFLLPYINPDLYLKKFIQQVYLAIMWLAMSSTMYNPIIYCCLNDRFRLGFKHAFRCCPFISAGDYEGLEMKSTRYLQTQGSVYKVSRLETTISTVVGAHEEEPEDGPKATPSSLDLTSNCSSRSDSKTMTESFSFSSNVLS
T11 sequence (P41143 whole entry): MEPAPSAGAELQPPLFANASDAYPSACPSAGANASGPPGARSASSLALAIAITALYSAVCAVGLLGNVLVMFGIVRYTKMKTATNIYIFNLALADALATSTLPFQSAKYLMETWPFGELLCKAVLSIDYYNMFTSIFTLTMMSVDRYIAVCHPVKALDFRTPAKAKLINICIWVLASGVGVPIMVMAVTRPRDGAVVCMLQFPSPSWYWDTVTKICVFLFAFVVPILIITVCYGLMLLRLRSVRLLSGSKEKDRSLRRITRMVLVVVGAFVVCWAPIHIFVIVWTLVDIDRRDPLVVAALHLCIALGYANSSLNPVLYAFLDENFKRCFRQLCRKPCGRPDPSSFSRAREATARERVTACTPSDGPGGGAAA
T6 sequence (P33032 whole entry): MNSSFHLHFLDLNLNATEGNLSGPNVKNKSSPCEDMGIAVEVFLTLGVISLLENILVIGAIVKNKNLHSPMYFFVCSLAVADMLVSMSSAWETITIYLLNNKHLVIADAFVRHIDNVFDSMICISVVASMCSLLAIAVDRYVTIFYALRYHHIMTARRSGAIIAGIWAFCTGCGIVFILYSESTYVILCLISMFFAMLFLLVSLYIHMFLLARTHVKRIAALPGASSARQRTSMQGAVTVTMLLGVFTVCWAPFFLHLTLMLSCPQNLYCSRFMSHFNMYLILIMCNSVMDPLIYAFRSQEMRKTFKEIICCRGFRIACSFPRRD
T5 sequence (P41145 whole entry): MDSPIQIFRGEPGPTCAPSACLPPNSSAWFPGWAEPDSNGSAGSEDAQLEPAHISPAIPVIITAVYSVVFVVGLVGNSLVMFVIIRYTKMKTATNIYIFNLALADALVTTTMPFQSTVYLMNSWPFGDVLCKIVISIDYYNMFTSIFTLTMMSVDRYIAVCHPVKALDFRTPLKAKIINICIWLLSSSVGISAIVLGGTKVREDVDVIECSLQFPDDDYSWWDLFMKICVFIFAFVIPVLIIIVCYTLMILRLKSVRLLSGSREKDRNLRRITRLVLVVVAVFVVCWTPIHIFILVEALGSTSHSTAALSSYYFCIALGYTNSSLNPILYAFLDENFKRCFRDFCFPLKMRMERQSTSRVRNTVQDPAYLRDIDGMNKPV
T4 sequence (Q99705 whole entry): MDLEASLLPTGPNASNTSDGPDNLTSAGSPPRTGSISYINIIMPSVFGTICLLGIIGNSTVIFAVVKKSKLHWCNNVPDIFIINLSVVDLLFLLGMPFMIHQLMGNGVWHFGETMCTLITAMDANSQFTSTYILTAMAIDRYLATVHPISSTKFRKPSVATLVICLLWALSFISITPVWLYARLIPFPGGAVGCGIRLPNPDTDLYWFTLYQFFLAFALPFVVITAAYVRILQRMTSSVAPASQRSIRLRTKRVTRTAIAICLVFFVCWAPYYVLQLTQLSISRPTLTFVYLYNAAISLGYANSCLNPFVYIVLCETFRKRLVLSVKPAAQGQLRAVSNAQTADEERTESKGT
T3 sequence (P41968 whole entry): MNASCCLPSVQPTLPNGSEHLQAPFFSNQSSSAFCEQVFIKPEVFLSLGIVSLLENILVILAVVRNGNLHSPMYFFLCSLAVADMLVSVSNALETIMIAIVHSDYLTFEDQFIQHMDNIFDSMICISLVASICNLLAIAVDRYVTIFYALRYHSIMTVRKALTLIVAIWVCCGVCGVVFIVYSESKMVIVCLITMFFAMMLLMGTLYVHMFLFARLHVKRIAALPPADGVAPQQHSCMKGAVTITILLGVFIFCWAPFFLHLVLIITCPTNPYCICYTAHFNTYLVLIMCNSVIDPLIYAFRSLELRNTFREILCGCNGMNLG
T9 sequence (P35372 whole entry): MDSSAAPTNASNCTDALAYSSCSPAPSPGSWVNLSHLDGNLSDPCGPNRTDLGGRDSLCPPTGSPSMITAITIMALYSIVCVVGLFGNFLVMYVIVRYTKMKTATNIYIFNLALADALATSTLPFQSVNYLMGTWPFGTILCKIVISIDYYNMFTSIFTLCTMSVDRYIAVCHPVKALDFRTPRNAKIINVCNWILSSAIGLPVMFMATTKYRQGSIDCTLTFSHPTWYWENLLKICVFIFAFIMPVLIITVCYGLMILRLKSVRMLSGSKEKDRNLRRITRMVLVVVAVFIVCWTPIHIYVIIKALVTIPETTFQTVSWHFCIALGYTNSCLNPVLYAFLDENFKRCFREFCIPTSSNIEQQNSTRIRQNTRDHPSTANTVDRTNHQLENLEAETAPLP

## N=C(N)NCCC(=O)NC1C(OCc2ccc(-c3ccccc3)cc2)OC(COCc2ccc(Cl)cc2)C(O)C1OCc1ccc(-c2ccccc2)cc1 (stereo not shown) [compound 416]
Human neurokinin (NK1); human NK1 membranes
  A8: inhibition of radioligand binding: + (“+” indicates greater than 50% inhibition at 10 μM)
Human opioid (ORL1); human ORL1 membranes
  A10: inhibition of radioligand binding: + (“+” indicates greater than 50% inhibition at 10 μM)
Human Melanocortin (MC3); human MC3 membranes
  A3: inhibition of radioligand binding: + (“+” indicates greater than 50% inhibition at 10 μM)
[1]; [3]
  A6: inhibition of radioligand binding: + (“+” indicates greater than 50% inhibition at 10 μM)
Human κ-Opioid (KOP); human KOP membranes
  A2: inhibition of radioligand binding: − (“−” indicates less than 50% inhibition at 10 μM)
Human melanocortin (MC5); human MC5 membranes
  A5: inhibition of radioligand binding: + (“+” indicates greater than 50% inhibition at 10 μM)
[2]; human NPY-Y1 membranes
  A9: inhibition of radioligand binding: − (“−” indicates less than 50% inhibition at 10 μM)
Mouse urotensin (mUR2); mouse mUR2 membranes
  A11: inhibition of radioligand binding: − (“−” indicates less than 50% inhibition at 10 μM)
Human μ-opioid (MOP); human MOP membranes
  A7: inhibition of radioligand binding: − (“−” indicates less than 50% inhibition at 10 μM)
Human Melanocortin (MC4); human MC4 membranes
  A4: inhibition of radioligand binding: + (“+” indicates greater than 50% inhibition at 10 μM)
Human δ-opioid (DOP); human DOP membranes
  A1: inhibition of radioligand binding: − (“−” indicates less than 50% inhibition at 10 μM)

## CO[C@H]1[C@H](O)[C@@H](COCc2ccc(Cl)cc2)OC(OCc2ccc(Cl)cc2)[C@@H]1NC(=O)CCNC(=N)N (stereo partly shown) [compound 106]
Human neurokinin (NK1)
  A8 radioligand binding, percentage inhibition: + (“+” indicates greater than 50% inhibition at 10 μM)
Human opioid (ORL1)
  A10 radioligand binding, percentage inhibition: − (“−” indicates less than 50% inhibition at 10 μM)
Human Melanocortin (MC3)
  A3 radioligand binding, percentage inhibition: + (“+” indicates greater than 50% inhibition at 10 μM)
[1]; [125I]-S36057
  A6 radioligand binding, percentage inhibition: − (“−” indicates less than 50% inhibition at 10 μM)
Human κ-Opioid (KOP)
  A2 radioligand binding, percentage inhibition: − (“−” indicates less than 50% inhibition at 10 μM)
Human melanocortin (MC5)
  A5 radioligand binding, percentage inhibition: + (“+” indicates greater than 50% inhibition at 10 μM)
[2]
  A9 radioligand binding, percentage inhibition: − (“−” indicates less than 50% inhibition at 10 μM)
Mouse urotensin (mUR2)
  A11 radioligand binding, percentage inhibition: − (“−” indicates less than 50% inhibition at 10 μM)
Human μ-opioid (MOP)
  A7 radioligand binding, percentage inhibition: − (“−” indicates less than 50% inhibition at 10 μM)
Human Melanocortin (MC4)
  A4 radioligand binding, percentage inhibition: + (“+” indicates greater than 50% inhibition at 10 μM)
Human δ-opioid (DOP)
  A1 radioligand binding, percentage inhibition: − (“−” indicates less than 50% inhibition at 10 μM)

## CSC1O[C@H](COCc2ccc(Cl)cc2)[C@@H](O)[C@@H](OCc2ccc(Cl)cc2)[C@H]1NC(=O)CCCNC(=N)N (stereo partly shown) [compound 274]
Human neurokinin (NK1); filtration
  A8: inhibition of radioligand binding: + (“+” indicates greater than 50% inhibition at 10 μM)
Human opioid (ORL1); FlashPlate
  A10: inhibition of radioligand binding: − (“−” indicates less than 50% inhibition at 10 μM)
Human Melanocortin (MC3); FlashPlate
  A3: inhibition of radioligand binding: − (“−” indicates less than 50% inhibition at 10 μM)
[1]; [125I]-S36057, FlashPlate
  A6: inhibition of radioligand binding: − (“−” indicates less than 50% inhibition at 10 μM)
Human κ-Opioid (KOP); filtration
  A2: inhibition of radioligand binding: − (“−” indicates less than 50% inhibition at 10 μM)
Human melanocortin (MC5); FlashPlate
  A5: inhibition of radioligand binding: − (“−” indicates less than 50% inhibition at 10 μM)
[2]; FlashPlate
  A9: inhibition of radioligand binding: − (“−” indicates less than 50% inhibition at 10 μM)
Mouse urotensin (mUR2); FlashPlate
  A11: inhibition of radioligand binding: − (“−” indicates less than 50% inhibition at 10 μM)
Human μ-opioid (MOP); FlashPlate
  A7: inhibition of radioligand binding: − (“−” indicates less than 50% inhibition at 10 μM)
Human Melanocortin (MC4); FlashPlate
  A4: inhibition of radioligand binding: − (“−” indicates less than 50% inhibition at 10 μM)
Human δ-opioid (DOP); FlashPlate
  A1: inhibition of radioligand binding: − (“−” indicates less than 50% inhibition at 10 μM)

## COC1C(O)C(COCc2ccc3ccccc3c2)OC(OCc2ccc(Cl)cc2)C1NC(=O)C1CCCN(C(=N)N)C1 (stereo not shown) [compound 348]
Human neurokinin (NK1)
  A8: inhibition of radioligand binding, human neurokinin (NK1): + (“+” indicates greater than 50% inhibition at 10 μM)
Human opioid (ORL1)
  A10: inhibition of radioligand binding, human opioid (ORL1): − (“−” indicates less than 50% inhibition at 10 μM)
Human Melanocortin (MC3)
  A3: inhibition of radioligand binding, human melanocortin (MC3): − (“−” indicates less than 50% inhibition at 10 μM)
[1]; [125I]-S36057
  A6: inhibition of radioligand binding, human melanin-concentrating hormone (MCH1): − (“−” indicates less than 50% inhibition at 10 μM)
Human κ-Opioid (KOP)
  A2: inhibition of radioligand binding, human κ-opioid (KOP): − (“−” indicates less than 50% inhibition at 10 μM)
Human melanocortin (MC5)
  A5: inhibition of radioligand binding, human melanocortin (MC5): + (“+” indicates greater than 50% inhibition at 10 μM)
[2]
  A9: inhibition of radioligand binding, human neuropeptide Y (NPY-Y1): − (“−” indicates less than 50% inhibition at 10 μM)
Mouse urotensin (mUR2)
  A11: inhibition of radioligand binding, mouse urotensin (mUR2): − (“−” indicates less than 50% inhibition at 10 μM)
Human μ-opioid (MOP)
  A7: inhibition of radioligand binding, human μ-opioid (MOP): − (“−” indicates less than 50% inhibition at 10 μM)
Human Melanocortin (MC4)
  A4: inhibition of radioligand binding, human melanocortin (MC4): − (“−” indicates less than 50% inhibition at 10 μM)
Human δ-opioid (DOP)
  A1: inhibition of radioligand binding, human δ-opioid (DOP): − (“−” indicates less than 50% inhibition at 10 μM)

## NCCCC(=O)NC1C(OCc2ccc3ccccc3c2)OC(COCc2ccc3ccccc3c2)C(O)C1OCc1ccc(Cl)cc1 (single isomer, unassigned) [compound 455]
Human neurokinin (NK1); human NK1 membranes
  A8: inhibition of radioligand binding: + (“+” indicates greater than 50% inhibition at 10 μM)
Human opioid (ORL1); human ORL1 membranes, 10 µM
  A10: inhibition of radioligand binding: − (“−” indicates less than 50% inhibition at 10 μM)
Human Melanocortin (MC3); human MC3 membranes
  A3: inhibition of radioligand binding: + (“+” indicates greater than 50% inhibition at 10 μM)
[1]; [3]
  A6: inhibition of radioligand binding: + (“+” indicates greater than 50% inhibition at 10 μM)
Human κ-Opioid (KOP); human KOP membranes, 10 µM
  A2: inhibition of radioligand binding: + (“+” indicates greater than 50% inhibition at 10 μM)
Human melanocortin (MC5); human MC5 membranes
  A5: inhibition of radioligand binding: + (“+” indicates greater than 50% inhibition at 10 μM)
[2]; human NPY-Y1 membranes
  A9: inhibition of radioligand binding: − (“−” indicates less than 50% inhibition at 10 μM)
Mouse urotensin (mUR2); mouse mUR2 membranes
  A11: inhibition of radioligand binding: − (“−” indicates less than 50% inhibition at 10 μM)
Human μ-opioid (MOP); human MOP membranes, 10 µM
  A7: inhibition of radioligand binding: + (“+” indicates greater than 50% inhibition at 10 μM)
Human Melanocortin (MC4); human MC4 membranes
  A4: inhibition of radioligand binding: + (“+” indicates greater than 50% inhibition at 10 μM)
Human δ-opioid (DOP); human DOP membranes
  A1: inhibition of radioligand binding: − (“−” indicates less than 50% inhibition at 10 μM)
